Experimental data reported in patent publication US20240101572A1, “DIHYDROOXADIAZINONE COMPOUND AND PHARMACEUTICAL USE THEREOF” (Japan Tobacco Inc., priority 2022, published 2024).
Like-named read-outs stand apart in the source and are kept apart here.

Assays:
full-length human PLD2 = full-length human PLD2 (Homo sapiens (Human), UniProt O14939); experiment: Evaluation of human PLD2 enzyme inhibitory activity (Amplex Red / choline oxidase fluorescence); type: biochemical; conditions: for IC50: full-length human PLD2 enzyme, read-out: PLD2 IC50
full-length human PLD2, sequence (O14939 whole entry): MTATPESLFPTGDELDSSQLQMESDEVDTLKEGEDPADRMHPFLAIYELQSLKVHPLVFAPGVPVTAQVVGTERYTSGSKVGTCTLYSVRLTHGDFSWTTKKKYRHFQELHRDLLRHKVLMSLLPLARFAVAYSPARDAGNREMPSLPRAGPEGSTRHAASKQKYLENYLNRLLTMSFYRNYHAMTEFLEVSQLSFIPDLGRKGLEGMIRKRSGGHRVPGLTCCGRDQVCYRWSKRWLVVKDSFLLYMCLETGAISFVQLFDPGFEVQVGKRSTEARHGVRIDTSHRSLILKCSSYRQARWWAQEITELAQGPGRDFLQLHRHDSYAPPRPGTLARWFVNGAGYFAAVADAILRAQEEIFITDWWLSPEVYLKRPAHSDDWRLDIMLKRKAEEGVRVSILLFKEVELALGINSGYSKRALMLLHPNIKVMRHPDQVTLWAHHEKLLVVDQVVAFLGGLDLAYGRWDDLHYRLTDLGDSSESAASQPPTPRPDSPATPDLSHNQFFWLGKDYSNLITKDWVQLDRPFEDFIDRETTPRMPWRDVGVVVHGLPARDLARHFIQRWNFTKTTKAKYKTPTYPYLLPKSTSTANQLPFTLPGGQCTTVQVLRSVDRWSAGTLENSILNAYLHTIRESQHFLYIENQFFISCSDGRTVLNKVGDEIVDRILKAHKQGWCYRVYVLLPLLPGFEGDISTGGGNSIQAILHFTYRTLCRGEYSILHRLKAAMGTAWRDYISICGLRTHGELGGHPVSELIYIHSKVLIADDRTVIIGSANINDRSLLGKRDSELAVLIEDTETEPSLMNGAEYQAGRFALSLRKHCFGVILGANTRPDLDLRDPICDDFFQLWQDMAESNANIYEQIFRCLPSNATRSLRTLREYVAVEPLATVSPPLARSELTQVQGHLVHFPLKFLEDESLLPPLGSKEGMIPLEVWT
Summary of the method: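 Released choline was read by Amplex Red fluorescence coupled to choline oxidase and HRP after a 60 min room-temperature reaction. Substrate was diheptanoyl phosphatidylcholine, added as a 6 mmol/L solution, and enzyme was FLAG-tagged full-length human PLD2 from Expi293F, added as a 6 nmol/L solution. Buffer was 50 mM HEPES pH 7.5 with 5% final DMSO.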

full-length human PLD1 = full-length human PLD1 (Homo sapiens (Human), UniProt Q13393); experiment: Evaluation of human PLD1 enzyme inhibitory activity (Amplex Red / choline oxidase fluorescence); type: biochemical; conditions: for IC50: full-length human PLD1 enzyme, read-out: PLD1 IC50
full-length human PLD1, sequence (Q13393 other isoform, or with tags, fused parts or gaps): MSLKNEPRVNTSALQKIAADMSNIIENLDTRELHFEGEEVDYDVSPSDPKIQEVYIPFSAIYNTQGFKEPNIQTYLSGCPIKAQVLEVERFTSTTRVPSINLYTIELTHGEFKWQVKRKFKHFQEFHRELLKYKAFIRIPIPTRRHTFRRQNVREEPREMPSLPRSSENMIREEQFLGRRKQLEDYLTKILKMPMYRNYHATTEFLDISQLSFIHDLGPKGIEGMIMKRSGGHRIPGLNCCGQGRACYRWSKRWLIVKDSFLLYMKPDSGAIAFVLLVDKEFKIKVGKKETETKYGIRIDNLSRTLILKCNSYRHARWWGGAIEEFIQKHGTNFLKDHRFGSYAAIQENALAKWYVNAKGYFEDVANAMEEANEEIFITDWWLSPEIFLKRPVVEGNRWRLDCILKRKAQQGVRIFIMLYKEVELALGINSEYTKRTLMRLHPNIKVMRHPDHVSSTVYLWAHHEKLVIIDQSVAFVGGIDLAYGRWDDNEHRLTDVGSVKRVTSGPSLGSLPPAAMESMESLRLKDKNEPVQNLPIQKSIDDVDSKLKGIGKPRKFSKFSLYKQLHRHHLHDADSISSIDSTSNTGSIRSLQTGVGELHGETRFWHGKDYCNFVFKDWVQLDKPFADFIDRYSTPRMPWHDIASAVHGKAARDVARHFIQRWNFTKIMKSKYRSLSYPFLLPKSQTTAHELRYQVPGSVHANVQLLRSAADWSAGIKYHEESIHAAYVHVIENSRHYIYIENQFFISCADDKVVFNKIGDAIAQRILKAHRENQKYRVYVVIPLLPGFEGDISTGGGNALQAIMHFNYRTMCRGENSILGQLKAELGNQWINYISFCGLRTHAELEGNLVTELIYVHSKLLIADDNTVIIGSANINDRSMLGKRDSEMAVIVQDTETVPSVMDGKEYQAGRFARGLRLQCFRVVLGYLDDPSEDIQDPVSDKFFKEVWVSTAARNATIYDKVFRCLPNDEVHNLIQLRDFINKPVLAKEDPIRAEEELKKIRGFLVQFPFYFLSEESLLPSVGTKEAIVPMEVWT
Summary of the method: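 Fluorescence read-out couples choline to Amplex Red via choline oxidase and peroxidase after a 60 min room-temperature reaction. Enzyme: FLAG-tagged full-length human PLD1 from Expi293F cells, anti-FLAG purified; substrate diheptanoyl phosphatidylcholine; HEPES pH 7.5 assay buffer with 0.01% NP-40, 0.1% BSA, 5% DMSO final.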

| SMILES | IC50 (full-length human PLD2) [nM] | IC50 (full-length human PLD1) [nM] | also measured |
| --- | --- | --- | --- |
| Cc1cc(C(=O)NC[C@H](C)N2CCC3(CC2)OC(=O)NN=C3c2ccc(C#N)cc2Br)[nH]n1 [Example 335] | < 10 | 126 | – |
| C[C@@H](C[C@H]1CC[C@]2(CC1)OC(=O)NN=C2c1cc(OCC(F)(F)F)ccc1Br)NC(=O)c1cnn(C)c1 [Example 305] | < 10 | 15 | – |
| Cc1cc(N2CCOCC2)ccc1C1=NNC(=O)O[C@]12CC[C@@H](C[C@H](C)NC(=O)NC1CC1)CC2 [Example 229] | 310 | 197 | – |
| CNC(=O)C(=O)N[C@@H](C)C[C@H]1CC[C@]2(CC1)OC(=O)NN=C2c1ccc(C(C)(C)O)cc1C [Example 178] | 17 | 14 | – |
| COc1cc(C)c(C2=NNC(=O)O[C@]23CC[C@@H](C[C@H](C)NC(=O)NCc2ccccn2)CC3)cn1 [Example 261] | 313 | 168 | – |
| C[C@@H](C[C@H]1CC[C@]2(CC1)OC(=O)NN=C2c1ccc(F)cc1Br)NC(=O)C1CC1 [Example 21] | 346 | 307 | – |
| C[C@@H](C[C@H]1CC[C@]2(CC1)OC(=O)NN=C2c1ccc(F)cc1Br)NC(=O)c1cc(Cl)no1 [Example 37] | < 10 | < 10 | – |
| Cc1cc(C(=O)N[C@@H](C)CN2CCC3(CC2)OC(=O)NN=C3c2ccc(C#N)cc2Br)[nH]n1 [Example 207] | < 10 | 25 | – |
| Cc1cc(C(=O)N[C@@H](C)C[C@H]2CC[C@]3(CC2)OC(=O)NN=C3c2cnc(N3C[C@@H]4C[C@H]3CO4)cc2C)[nH]n1 [Example 250] | < 10 | 22 | – |
| CNC(=O)C(=O)N[C@@H](C)C[C@H]1CC[C@]2(CC1)OC(=O)NN=C2c1cnc(C(N)=O)cc1C [Example 187] | 455 | 222 | – |
| C[C@@H](C[C@H]1CC[C@]2(CC1)OC(=O)NN=C2c1ccc(OCC(C)(C)O)cc1Br)NC(=O)c1cc(Cl)no1 [Example 131] | < 10 | 10 | – |
| COc1cc(C)c(C2=NNC(=O)O[C@]23CC[C@@H](C[C@H](C)NC(=O)N2CCn4c(nnc4C(F)(F)F)C2)CC3)cn1 [Example 259] | 2500 | 1450 | – |
| Cc1ccncc1C1=NNC(=O)O[C@]12CC[C@@H](C[C@H](C)NC(=O)c1nc3ccccc3[nH]1)CC2 [Example 146] | < 10 | 20 | – |
| C[C@@H](CN1CCC2(CC1)OC(=O)NN=C2c1ccc(F)cc1Br)NC(=O)NC1CC1 [Example 189] | 140 | 130 | – |
| Cc1cc(C(=O)N[C@H](C)CN2CCC3(CC2)OC(=O)NN=C3c2ccc(F)cc2Br)[nH]n1 [Example 2-012] | 245 | 2040 | – |
| CNC(=O)C(=O)N[C@@H](C)C[C@H]1CC[C@]2(CC1)OC(=O)NN=C2c1cnc(N2C[C@@H]3C[C@H]2CO3)cc1C [Example 268] | < 10 | 30 | – |
| CNC(=O)C(=O)N[C@@H](C)C[C@H]1CC[C@]2(CC1)OC(=O)NN=C2c1cnc(C)cc1Cl [Example 230, N^1—((S)-1-(cis-5-(4-chloro-6-methylpyridin-3-yl)-2-oxo-1-oxa-3,4-diazaspiro[5.5]undec-4-en-9-yl)propan-2-yl)-N^2-methyloxamide] | < 10 | 21 | – |
| C[C@@H](CN1CCC2(CC1)OC(=O)NN=C2c1cc(C#N)ccc1Br)NC(=O)/C=C\C(=O)O [Example 2-047] | – | – | inhibition at 10 µM (full-length human PLD2; 10 μM compound, read-out: PLD2 inhibition rate at 10 μM): 34%; inhibition at 10 µM (full-length human PLD2; read-out: inhibition rate of PLD2 at 10 μM compound): 34%; inhibition at 10 µM (full-length human PLD1; 10 μM compound, read-out: PLD1 inhibition rate at 10 μM): 32%; inhibition at 10 µM (full-length human PLD1; read-out: inhibition rate of PLD1 at 10 μM compound): 32% |
| CNC(=O)C(=O)N[C@@H](C)C[C@H]1CC[C@]2(CC1)OC(=O)NN=C2c1ccc(C(C)(C)O)cc1Br [Example 96] | < 10 | 18 | – |
| CNC(=O)C(=O)N[C@@H](C)CC1CCC2(CC1)OC(=O)NN=C2c1ccncc1Br (mixture of isomers) [Example 120] | 11 | 12 | – |
| Cc1cc(C(=O)N[C@@H](C)[C@H](C)N2CCC3(CC2)OC(=O)NN=C3c2ccc(F)cc2Br)[nH]n1 [Example 288] | < 10 | 26 | – |
